For orientation: inhibition means the percentage by which the read-out fell short of the control. A high value points to a response far below the control. The IC50 is the point on the concentration scale where inhibition reaches its midpoint.

The structures appear in SMILES notation. Bounds are passed on as bounds.

Common to all, as to assay type: cell-based
In assay [1] the test system is VEGF stimulated Phospho-ERK in HUVEC. Put plainly: Growth factor stimulated p-ERK assay in HUVECs (VEGF stimulation, ERK1/2 Bioplex). Conditions: Homo sapiens, @ 100 nM, compound 2 hrs, then 50 ng/ml VEGF 10 min. In short, it runs like this: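 HUVECs in serum-free RPMI 1640/0.1% BSA pretreated with compound 2 hrs, then stimulated 10 min with 50 ng/ml VEGF (or bFGF). Lysate phospho-ERK1/2 quantified by bead-based Bio-Plex immunoassay on Luminex.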

The subject of the next assay is HCT116 cells. Put plainly: Tumor cell proliferation (Alamar Blue), HCT116. Conditions: Homo sapiens, HCT-116, 72 h. Put shortly:
(§1)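 Cells seeded at 3.0×10^3/well in RPMI with 10% FBS for 16 h, then treated with compound (added medium held 40 μM to 18 nM compound, 0.4% DMSO) for 72 h at 37 °C, 5% CO2. Viability by Alamar Blue, 3 h, fluorescence 544/590 nm. IC50 by linear regression of log concentration versus percent inhibition.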
On the technique in general: Alamar Blue is a resazurin reagent that responds to reducing activity.

The next assay deals with MDA-MB-231 cells. Put plainly: Tumor cell proliferation (Alamar Blue), MDA-MB-231. To be noted: Homo sapiens, MDA-MB-231, 72 h. Put shortly: as §1
The test system of assay [2] is histone 3 phosphorylation in colon carcinoma (HCT116). Put plainly: p-Histone3 assay: inhibition of histone 3 phosphorylation in HCT116. To be noted: Homo sapiens, HCT-116, 24 h, HCT116, 24 hours compound treatment. On the procedure:
Compounds were assayed for the inhibition of histone 3 phosphorylation in colon carcinoma (HCT116). Briefly, 20,000 cells/well were seeded in a 96-well black-walled, poly-d-lysine plates in RPMI+10% FBS and incubated at 37° C. in 5% CO2 overnight. The following day, the cells were treated with compounds for 24 hours at 37° C. Following compound treatment; plates were centrifuged at 1000 rpm for 2 minutes and washed twice with 100 μl of cold sterile TBS. Cells were then fixed with cold 3.7% formaldehyde in TBS (4° C. for 1 hour) and then permeabolized with 0.1% Triton-X-100 in TBS (room temperature for 30 minutes). Plates were then washed with of 0.25% BSA-TBS and blocked with BSA solution for 1 hour at room temperature while shaking. The supernatant was removed and replaced with diluted primary antibody (anti-phospho-histone 3, serine 10, Cell Signaling) at 1:250 in 0.25% BSA-TBS and incubated overnight at 4° C. The plates were washed and treated with diluted secondary antibody (anti-rabbit Eu-labeled) at 1:10000 in 0.25% BSA-TBS (room temperature for 1 hour). The antibody solution was removed from each well and washed eight times. The wash buffer was replaced with 50 μl pre-warmed enhancement solution and mixed on the orbital shaker for 10 minutes. Fluorescence was detected with a Victor V Fluorescence Detector. The data are expressed as percent inhibition: % inhibition=100−((Signal with inhibitor-background)/(Signal without inhibitor-background))×100.

As to `CNC(=O)c1cn2ncnc(N)c2c1-c1ccc(NC(=O)Nc2cc(C(F)(F)F)ccc2F)cc1` [Example 59, 4-amino-5-{4-[({[2-fluoro-5-(trifluoromethyl)phenyl]amino}carbonyl)amino]phenyl}-N-methylpyrrolo[2,1-f][1,2,4]triazine-6-carboxamide], the inhibition at 0.1 µM in assay [1] is greater than 50%. In addition, the IC50 is greater than 0.5 µM in the assay with HCT116 cells; less than 1.5 µM in the assay with HCT116 cells (bounds given in μM); greater than 0.5 µM with MDA-MB-231 cells; less than 1.5 µM in the assay on MDA-MB-231 cells (bounds given in μM); greater than 0.5 µM in assay [2]; less than 1 µM in assay [2] (bound given in μM).
In the case of `COCCNC(=O)c1cn2ncnc(N)c2c1-c1ccc(NC(=O)Nc2cc(C(F)(F)F)ccc2F)cc1` [Example 167, 4-amino-5-{4-[({[2-fluoro-5-(trifluoromethyl)phenyl]amino}carbonyl)amino]phenyl}-N-(2-methoxyethyl)pyrrolo[2,1-f][1,2,4]triazine-6-carboxamide], the concentration for half-maximal inhibition (IC50) in assay [2] was greater than 0.5 µM; in assay [2] (bound given in μM), less than 1 µM.
In assay [2], `CCOC(=O)c1cn2ncnc(N)c2c1-c1ccc(NC(=O)Nc2cccc(Oc3ccccc3)c2)cc1` [Example 171, ethyl 4-amino-5-[4-({[(3-phenoxyphenyl)amino]carbonyl}amino)phenyl]pyrrolo[2,1-f][1,2,4]triazine-6-carboxylate] displayed a half-maximal inhibitory concentration (IC50) of less than 0.5 µM.
For the compound `CCNC(=O)c1cn2ncnc(N)c2c1-c1ccc(NC(=O)Nc2cccc(C(F)(F)F)n2)cc1` [Example 176, 4-amino-N-ethyl-5-{4-[({[6-(trifluoromethyl)pyridin-2-yl]amino}carbonyl)amino]phenyl}pyrrolo[2,1-f][1,2,4]triazine-6-carboxamide], the 50% inhibitory concentration (IC50) in assay [2] was less than 0.5 µM.
As for `Nc1ncnn2cc(C(=O)NC3CC3)c(-c3ccc(NC(=O)Nc4cccc(C(F)(F)F)n4)cc3)c12` [Example 177, 4-amino-N-cyclopropyl-5-{4-[({[6-(trifluoromethyl)pyridin-2-yl]amino}carbonyl)amino]phenyl}pyrrolo[2,1-f][1,2,4]triazine-6-carboxamide], in assay [2], the IC50 was less than 0.5 µM.
Take `CSCCCNC(=O)c1cn2ncnc(N)c2c1-c1ccc(NC(=O)Nc2cccc(C(F)(F)F)n2)cc1` [Example 204, 4-amino-N-[3-(methylthio)propyl]-5-{4-[({[6-(trifluoromethyl)pyridin-2-yl]amino}carbonyl)amino]phenyl}pyrrolo[2,1-f][1,2,4]triazine-6-carboxamide]: the IC50 in assay [2] was greater than 0.5 µM; in assay [2] (bound given in μM), less than 1 µM.

Values taken from US7563791B2, “Pyrrolotriazine derivatives useful for treating hyper-proliferative disorders and diseases associated with angiogenesis” (Bayer Pharmaceuticals Corporation, priority 2004, dated 2009).
